Series [1] has as its target Nucleic Acid. As to the kind of experiment: Displacement of methyl green dye from DNA after 24 hrs by spectrophotometric analysis. The series is classed as nucleic-acid assay.
Series [2] concerns Nucleic Acid. As to the kind of experiment: Binding affinity to DNA using anisaldehyde reagent by TLC method. It is filed as nucleic-acid assay.
Series [3] can be described thus: Antitumor activity against mouse EAC cells xenografted in Swiss albino mouse assessed as increase in lifespan of organism at 100 ug administered 24 hrs post inoculation for 9 days. It is filed as functional, Ehrlich.
Series [4] has as its system Ehrlich. As to the kind of experiment: Antitumor activity against mouse EAC cells xenografted in Swiss albino mouse assessed as reduction in viable tumor cells at 100 ug after 5 days using giemsa staining by microscopy. It is filed as functional.
The subject of series [5] is Mus musculus. The experiment in a line: Toxicity in Swiss albino mouse xenografted with mouse EAC assessed as haemoglobin level at 100 ug (reference value: 13.4 per g%). The series is classed as organism-based. To be noted: in vivo.
The subject of series [6] is Mus musculus. The experiment in a line: Toxicity in Swiss albino mouse xenografted with mouse EAC assessed as RBC level at 100 ug (reference value: 5.1/10^6 mm-3). The series is classed as organism-based. To be noted: in vivo.
In series [7] the test system is Mus musculus. As to the kind of experiment: Toxicity in Swiss albino mouse xenografted with mouse EAC assessed as total WBC level at 100 ug (reference value: 4.35/10^3 mm3). To be noted: in vivo. It is filed as organism-based.
The subject of series [8] is Mus musculus. The experiment in a line: Toxicity in Swiss albino mouse xenografted with mouse EAC assessed as ALT level at 100 ug (reference value: 3.7 u/L). To be noted: in vivo. The series is classed as organism-based.
A short description of series [9]: Antitumor activity against mouse EAC cells xenografted in Swiss albino mouse assessed as increase in lifespan of organism at 20 mg/kg, ip administered 24 hrs post inoculation for 9 days. The conditions noted are these: route intraperitoneal. The series is classed as functional, Ehrlich.
Series [10] deals with Mus musculus. The experiment in a line: Toxicity in Swiss albino mouse xenografted with mouse EAC assessed as haemoglobin level at 20 mg/kg, ip (reference value: 13.4 per g%). To be noted: in vivo. The series is classed as organism-based. On the set-up: dose 20 mg/kg, route intraperitoneal.
The subject of series [11] is Mus musculus. The experiment in a line: Toxicity in Swiss albino mouse xenografted with mouse EAC assessed as RBC level at 20 mg/kg, ip (reference value: 5.1/10^6 mm-3). It is filed as organism-based. On the set-up: dose 20 mg/kg, route intraperitoneal. To be noted: in vivo.
Series [12] has as its system Mus musculus. The experiment in a line: Toxicity in Swiss albino mouse xenografted with mouse EAC assessed as total WBC level at 20 mg/kg, ip (reference value: 4.35/10^3 mm3). Details: dose 20 mg/kg, route intraperitoneal. The conditions noted are these: in vivo. It is filed as organism-based.
Series [13] relates to Mus musculus. As to the kind of experiment: Toxicity in Swiss albino mouse xenografted with mouse EAC assessed as ALT level at 20 mg/kg, ip (reference value: 3.7 u/L). The conditions noted are these: in vivo. It is filed as organism-based. Details: dose 20 mg/kg, route intraperitoneal.
Series [14] deals with Ehrlich. The experiment in a line: Antitumor activity against mouse EAC cells xenografted in Swiss albino mouse assessed as reduction in viable tumor cells at 20 mg/kg, ip after 5 days using giemsa staining by microscopy. The series is classed as functional, organism-based. Details: dose 20 mg/kg.

Converted amounts (≈) assume the structure as drawn. The source made the active and inactive calls. No cut-off for these calls is given here.

The term IC50 denotes the concentration at which inhibition is half-maximal. The low end stands for higher potency, the high end for lower potency. With `Cc1nc2sc(S(N)(=O)=O)nn2c(=O)c1/N=N/c1ccc(Cl)cc1`, the half-inhibitory concentration (IC50) on Nucleic Acid [1] was 74 µg/mL (≈ 192 µM).

On Nucleic Acid [1], `NS(=O)(=O)c1nn2c(=O)cc(Cl)nc2s1` displayed a half-inhibitory concentration (IC50) of 79 µg/mL (≈ 296 µM).

`COc1ccc(C2C=C(c3ccccc3)N=C3SC(S(N)(=O)=O)=NN32)cc1OC` (centres undefined): the result in the series with Nucleic Acid [2] and with Ehrlich [4] was Active. At Nucleic Acid [1], this molecule registered a half-maximal inhibitory concentration (IC50) of 62 µg/mL (≈ 144 µM). In addition, the Activity in series [3] was 57.14%.

The molecule `Cc1cc(=O)n2nc(S(N)(=O)=O)sc2n1` came in with a concentration for half-maximal inhibition (IC50) on Nucleic Acid [1] of 76 µg/mL (≈ 309 µM).

In the case of `NS(=O)(=O)C1=NN2C(=NC(c3ccccc3)=CC2c2ccc(Cl)cc2)S1` (centres undefined), the result in the series with Nucleic Acid [2] and in the series with Ehrlich [4] was Active. In addition, the IC50 on Nucleic Acid [1] is 40 µg/mL (≈ 98.8 µM). Moreover, the Activity in series [3] is given as 42.86%.

`Nc1ccc(C2=CC(c3ccc(Cl)cc3)N3N=C(S(N)(=O)=O)SC3=N2)cc1` (centres undefined): the result with Nucleic Acid [2] and in the series on Ehrlich [4] was Active. The half-inhibitory concentration (IC50) at Nucleic Acid [1] was 64 µg/mL (≈ 152 µM). Also, the Activity in [3] came out at 71.43%; with Mus musculus [5] it was 11.1%; with Mus musculus [6] it was 5.96%; in the series on Mus musculus [7], 9.45%; in the series on Mus musculus [8], 6.7%.

As to `COc1ccc(/N=N/c2c(C)nc3sc(S(N)(=O)=O)nn3c2=O)cc1`, the result with Nucleic Acid [2] was inactive. At Nucleic Acid [1], this molecule had a concentration for half-maximal inhibition (IC50) of 81 µg/mL (≈ 213 µM).

At Nucleic Acid [1], `N=C1CC(=O)N=C2SC(S([NH-])(=O)=O)=NN12.[Na+]` yielded an IC50 of 76 µg/mL.

With `COc1ccc(C2C=C(c3ccc(N)cc3)N=C3SC(S(N)(=O)=O)=NN32)cc1` (centres undefined), the outcome in the series on Nucleic Acid [2] was inactive. Also, the IC50 on Nucleic Acid [1] stood at 81 µg/mL (≈ 195 µM).

Regarding `NS(=O)(=O)c1nn2c(=O)cc(C(=O)NNc3ccccc3)nc2s1`, the outcome in the series with Nucleic Acid [2] was inactive. Also, on Nucleic Acid [1], the IC50 was 81 µg/mL (≈ 221 µM).

In turn, `Cc1cccc(C2=CC(c3ccccc3)N3N=C(S(N)(=O)=O)SC3=N2)c1` (centres undefined) showed an IC50 at Nucleic Acid [1] of 72 µg/mL (≈ 187 µM).

As to `O=c1[nH]cc(F)c(=O)[nH]1` [FLUOROURACIL], the Activity in series [9] is given as 42.86%; in the series on Mus musculus [10], 15.6%; in the series on Mus musculus [11] it was 5.87%; in the series on Mus musculus [12], 14.7%; in the series on Mus musculus [13], 6.9%. In addition, the result in the series on Ehrlich [14] was Active.

Consider `Cc1ccc(/N=N/c2c(C)nc3sc(S(N)(=O)=O)nn3c2=O)cc1`, for which the outcome with Nucleic Acid [2] was inactive. In addition, on Nucleic Acid [1], the IC50 amounted to 81 µg/mL (≈ 222 µM).

As for `CC[n+]1c(-c2ccccc2)c2cc(N)ccc2c2ccc(N)cc21.[Br-]` [HOMIDIUM BROMIDE], on Nucleic Acid [1], the IC50 was found to be 1.4 µg/mL.

`Cc1nc2sc(S(N)(=O)=O)nn2c(=O)c1/N=N/c1ccc(Br)cc1`: the 50% inhibitory concentration (IC50) at Nucleic Acid [1] was determined as 74 µg/mL (≈ 172 µM).

For `NS(=O)(=O)c1nn2c(=O)ccnc2s1`, the IC50 at Nucleic Acid [1] came out at 70 µg/mL (≈ 301 µM). This IC50 and that of the molecule before are within 1.5-fold of each other.

Take `Cc1nc2sc(S(N)(=O)=O)nn2c(=O)c1/N=N/c1ccc([N+](=O)[O-])cc1`: the result in the series on Nucleic Acid [2] was inactive. The molecule also registered an IC50 on Nucleic Acid [1] of 81 µg/mL (≈ 205 µM).

`NS(=O)(=O)C1=NN2C(=NC(c3ccccc3)=CC2c2cc([N+](=O)[O-])ccc2Cl)S1` (centres undefined) showed an IC50 on Nucleic Acid [1] of 80 µg/mL (≈ 178 µM).

With `NS(=O)(=O)C1=NN2C(=NC(c3ccccc3)=CC2c2ccc([N+](=O)[O-])cc2)S1` (centres undefined), the result in the series on Nucleic Acid [2] was inactive. Moreover, on Nucleic Acid [1], the IC50 was 81 µg/mL (≈ 195 µM).

At Nucleic Acid [1], `Cc1nc2sc(S(N)(=O)=O)nn2c(=O)c1/N=N/c1ccccc1` had an IC50 of 77 µg/mL (≈ 220 µM).
